Laboratory results published in patent publication US7217808B2, “RFRP-3 and DNA thereof” (Takeda Pharmaceutical Company, Ltd., priority 2001, dated 2007).

Tests used:
rOT7T022L = target: T1, rOT7T022L (Rattus norvegicus, UniProt Q9EP86); assay: Cytosensor acidification rate of rOT7T022L receptor-expressing CHO cells; assay type: cell-based; conditions: peptide exposure 7 min 2 sec
T1 construct: expressed in transfected cells; host or cells: CHO dhfr- cells (clone CHO-rOT7T022L)
Text: The rOT7T022L receptor-expressing CHO cells obtained in (2) in Reference Example 7 were sown in cytosensor capsules at 2.7×10^5 cells/capsule. After overnight culture, the capsules were mounted in the work station of a cytosensor. The assay medium (0.1% bovine serum albumin-containing low buffered RPMI1640 medium) positioned in the flow route of the cytosensor was supplied to the cells under pump ON (80 sec)/pump OFF (40 sec) cycles. In each cycle, the change ratio of extracellular pH for 30 sec starting from 8 sec after the stop of the pump was calculated as acidification rate. The time course of acidification rate was monitored. When this rate began to show stable values, the flow route was shifted to thereby expose individual peptide to the cells for 7 min and 2 sec. The values of acidification rate in individual wells were normalized taking the values for the 3 cycles immediately before the peptide exposure as 100%.

human-type OT7T022 = target: T2, human-type OT7T022 (Homo sapiens, UniProt Q9GZQ6); assay: Binding inhibition of 125I-Tyr-hRFRP-3(8) to membrane fraction from human-type OT7T022-expressing CHO cells; conditions: room temperature 1.5 hr
T2 construct: expressed in transfected cells; host or cells: CHO cells
T2 sequence (Q9GZQ6 whole entry): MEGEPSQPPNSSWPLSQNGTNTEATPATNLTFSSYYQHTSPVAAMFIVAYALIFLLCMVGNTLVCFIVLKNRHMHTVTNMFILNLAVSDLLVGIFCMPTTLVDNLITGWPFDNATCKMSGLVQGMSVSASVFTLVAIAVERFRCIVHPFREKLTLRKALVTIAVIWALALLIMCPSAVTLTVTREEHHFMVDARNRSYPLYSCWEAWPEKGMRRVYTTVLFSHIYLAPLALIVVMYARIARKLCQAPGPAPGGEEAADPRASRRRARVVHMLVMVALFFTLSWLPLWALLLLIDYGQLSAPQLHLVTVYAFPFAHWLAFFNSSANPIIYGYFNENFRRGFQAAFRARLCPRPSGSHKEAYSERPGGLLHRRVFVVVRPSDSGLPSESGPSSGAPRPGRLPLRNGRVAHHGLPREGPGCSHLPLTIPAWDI
Procedure: With this buffer, the membrane fraction from human-type OT7T022-expressing CHO cells was diluted to give a concentration of 1 μg/25 μl. […] Sample solutions prepared, NSB and the assay buffer were dispensed into polypropylene 96-well plates in quadruplicate as total 50 μl/well. […] Twenty-five microliter of the membrane fraction solution from human-type OT7T022-expressing CHO cells was added thereto, agitated with a plate mixer and incubated at room temperature for 1.5 hr. Using a cell harvester for 96-well plates, the contents of each well were adsorbed onto a filter unit (GF/C, treated with polyethylene imine) pre-moisturized with washing buffer (50 mM Tris-HCl, pH 7.5). After washing 5 times with the washing buffer, the adsorbate was dried thoroughly. The lower part of the filter unit was sealed. Then, 50 μl of liquid scintillator was added to each well and the upper part of the filter unit was sealed. Radioactivity was measured with a Top Count (Packard), and data were analyzed in triplicate.

Human OT7T022 receptor = target: T3, Human OT7T022 receptor (Homo sapiens, UniProt Q9GZQ6); assay: Effect of pertussis toxin upon activation of human OT7T022 receptor (cAMP production inhibition); assay type: cell-based; conditions: 0.1 μM peptide, 1 μM forskolin, 100 ng/ml pertussis toxin overnight
T3 construct: expressed in transfected cells; host or cells: CHO cells
T3 sequence (Q9GZQ6 whole entry): as above
Procedure: The human OT7T022 receptor-expressing CHO cells obtained in Example A8 were plated in 24-well plates at 1×10^5 cells/well and cultured overnight. Then, the medium was changed for 100 ng/ml pertussis toxin (Sigma)-containing medium or a control medium, and the cells were cultured overnight. The cells were washed with Hanks' buffer (HBSS) supplemented with 0.05% BSA and 0.2 mM IBMX and then pre-incubated in the same buffer at 37° C., for 30 min. Subsequently, the buffer was exchanged for HBSS supplemented with 0.05% BSA and 0.2 mM IBMX, HBSS supplemented with 1 μM forskolin alone, or HBSS supplemented with 1 μM forskolin and a peptide at various concentrations, and the cells were incubated at 37° C. for 30 min. After the incubation, the buffer was exchanged for HBSS supplemented with 0.05% BSA and 0.2 mM IBMX (black column), this buffer supplemented with 1 μM forskolin alone (white column), or this buffer supplemented with 1 μM forskolin and 0.1 μM RFRP-1-12 (peptide having the amino acid sequence which is from position 81 (Met) to position 92 (Phe) of SEQ ID NO: 1) (column with slant lines), and the cells were incubated at 37° C. for 30 min. After the incubation, intracellular cAMP was extracted and determined for each well according to the protocol attached to the cAMP EIA Kit (Amersham). […]

adult male Wistar rats = assay: Plasma pituitary hormone levels after administration into the third ventricle; assay type: in vivo, rat; conditions: 10 mnol into the third ventricle; for plasma prolactin levels: vs PBS control
Procedure: Effects of the administration of the peptide represented by SEQ ID NO: 39 into the third ventricle upon pituitary hormone levels were examined. Briefly, adult male Wistar rats (body weight 290–350 g at the time of surgery) were anesthetized by intraperitoneal administration of 50 mg/kg pentobarbital and fixed in a stereotaxic apparatus for rat brain. The incisor bar was set 3.3 mm below the interaural line. The skull surface was exposed, and a hole was drilled in the skull with a dental drill in order to implant a guide cannula Further, an anchor screw was embedded at one place around the hole. A stainless guide cannula AG-12 (inside dia. 0.4 mm, outside dia. 0.5 mm; Eicom) was inserted so that its tip is located above the third ventricle. The stereotaxic coordinates were set as follows according to the atlas of Paxinos and Watson (1998): AP: +7.2 mm (from the interaural line), L: 0.0 mm, H: +2.0 mm (from the interaural line). The guide cannula was fixed onto the skull with instant glue, dental cement and the anchor screw. A stainless dummy cannula AD-12 (outside dia. 0.35 mm; Eicom) was inserted into the guide cannula and fixed with a cap nut (Eicom). After the surgery, the rats were bred separately in individual cages for more than one week to allow recovery.
The day before the experiment, the rats that had undergone the above surgery were anesthetized by intraperitoneal administration of 50 mg/kg pentobarbital and fixed on anatomical pads in face-up position. Then, a catheter (SP35; Natsume Seisakusho) was inserted into the right jugular vein. The next day, 400 μl of blood was taken from the jugular vein. In order to prevent blood coagulation, 20 μl of physiological saline containing 200 units/ml heparin was put in advance in the injection syringe. The cap nut and the dummy cannula installed on the rat skull were removed. Instead of them, a stainless microinjection cannula AMI13 (inside dia. 0.17 mm, outside dia. 0.35 mm; Eicom) connected with a Teflon tube (length 50 cm, inside dia. 0.1 mm, outside dia. 0.4 mm; Eicom) was inserted into the guide cannula. The length of the microinjection cannula was adjusted in advance so that 1 mm of its tip is exposed from the guide cannula. One end of the Teflon tube was connected with a microsyringe pump. Then, a total 10 μl of PBS alone or PBS containing the peptide represented by SEQ ID NO: 39 was injected into the third ventricle at a flow rate of 5 μl/min. One minute after the completion of the injection, the microinjection cannula was removed, and a dummy cannula was fixed again with a cap nut. A 400 μl blood sample was taken from the cannula inserted into the jugular vein immediately before the start of the intraventricular administration and at 10, 20, 30, 40 and 60 min after the start of the intraventricular administration. The collected blood was centrifuged at 5,000 rpm for 10 min in a high-speed refrigerated microcentrifuge (MR-150; Tomy Seiko) to recover the supernatant (plasma). The prolactin levels in the plasma were measured by radioimmunoassay.
The results are expressed as mean±S.E.M. Whether there is a significant difference between the group to which PBS containing the peptide represented by SEQ ID NO: 39 was administered and the control group to which PBS alone was administered was tested by Student's t-test. Differences were assessed with two-sided tests, and significance level 5% or below was judged statistically significant.

T1 sequence (Q9EP86 whole entry): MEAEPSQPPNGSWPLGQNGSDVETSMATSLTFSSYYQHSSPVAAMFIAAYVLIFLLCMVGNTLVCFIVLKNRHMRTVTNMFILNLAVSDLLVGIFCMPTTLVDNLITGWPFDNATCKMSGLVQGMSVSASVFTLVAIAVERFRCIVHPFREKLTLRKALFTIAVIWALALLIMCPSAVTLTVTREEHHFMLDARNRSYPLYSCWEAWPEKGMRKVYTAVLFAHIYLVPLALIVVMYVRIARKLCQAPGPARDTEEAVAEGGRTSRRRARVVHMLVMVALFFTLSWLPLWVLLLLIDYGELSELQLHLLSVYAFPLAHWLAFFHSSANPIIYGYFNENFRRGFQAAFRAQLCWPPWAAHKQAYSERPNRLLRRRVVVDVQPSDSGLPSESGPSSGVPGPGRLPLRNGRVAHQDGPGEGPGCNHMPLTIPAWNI

CC(C)C[C@H](NC(=O)[C@H](CC(N)=O)NC(=O)[C@@H]1CCCN1C(=O)[C@@H](N)C(C)C)C(=O)N1CCC[C@H]1C(=O)N[C@@H](CCC(N)=O)C(=O)N[C@@H](CCCNC(=N)N)C(=O)N[C@@H](Cc1ccccc1)C(N)=O
reactivity of rOT7T022L receptor-expressing CHO cells (acidification rate) (rOT7T022L): reactive

H-ATANLPLRSGRNMEVSLVRRVPNLPQRF-NH2 [hRFRP-3 (28)]
IC50 (human-type OT7T022): 1.6 nM

H-MPHSFANLPLRF-NH2
cAMP production inhibitory activity in cells treated with pertussis toxin (Human OT7T022 receptor): disappeared
ACTH level in the plasma (adult male Wistar rats): did not show significant changes
GH level in the plasma (adult male Wistar rats): did not show significant changes
LH level in the plasma (adult male Wistar rats): did not show significant changes
TSH level in the plasma (adult male Wistar rats): did not show significant changes
plasma prolactin levels (adult male Wistar rats; 60 min after administration): significant difference was observed
plasma prolactin levels (adult male Wistar rats; at 20, 30 and 40 min after administration): increased significantly
plasma prolactin levels (adult male Wistar rats; from 10 min after administration): increasing tendency
reactivity of rOT7T022L receptor-expressing CHO cells (acidification rate) (rOT7T022L): reactive
